# According to patent US7959948B2, “Pharmaceutical composition of quetiapine fumarate” (Synthon BV, priority 2007, dated 2011):
# Where a name gives a salt, the structure may show the parent alone.
# Legend:
# [1] = white crystalline powder; cited from earlier work
# physchem = test: physchem
# Source text: The composition preferably comprises an acid, preferably fumaric acid.
compound,measurement,setting,value
"OCCOCCN1CCN(C2=Nc3ccccc3Sc3ccccc32)CC1 [Quetiapine fumarate, 2-[2-(4-dibenzo[b,f] [1,4]thiazepin-11-yl-1-piperazinyl)ethoxy]ethanol]",solubility in water,[1],moderately soluble in water
same,solubility,"physchem; pH 1, simulated gastric fluid",35.8 mg/mL
same,solubility,"physchem; pH 6.2, aqueous buffer",4.6 mg/mL
